Data set [1] relates to Patients with Moderate to Severe Diabetic Foot Infection. The data set is described as follows: Phase 1b/2a study of topical BisEDT: wound surface area by 3D digital photographs (Example 6). It is filed as in vivo, human. The note with it: end of treatment, test of cure and end of study. Here is the method:
Adjunctive local administration of BisEDT was tested for its efficacy in resolving both infection and critical colonization, thereby removing these barriers to wound repair and closure. This represents a fundamental, clinically meaningful benefit.
Topical BisEDT suspension and placebo were used in combination with SOC systemic antibiotics (such as levofloxacin) for a duration of 2-3 weeks. […] BisEDT, when used in conjunction with systemic antibiotics, for a duration of […] (3× per week) may be beneficial in resolving both infection and critical colonization, therefore enabling wound repair and closure, a fundamental, clinically meaningful benefit.

Data set [2] is described as follows: Phase 1b/2a DFI study (Example 7): safety and tolerability. It is filed as in vivo, human. The text has this: The primary objective of Part 1 of this study and the planned primary objective of Part 2 of this study was to evaluate the safety and tolerability of topically administered BisEDT composition as adjunct to standard of care (including systemic antibiotic therapy) in subjects with a moderate to severe DFI. The secondary objectives of Part 1 of this study and the planned secondary objectives of Part 2 of this study were: To evaluate the effect of adjunctive BisEDT composition on resolution of infection; To evaluate the effect of adjunctive BisEDT composition on eradication of pathogens; To evaluate the effect of BisEDT composition on eradication of biofilms; To evaluate the effect of BisEDT composition on wound healing; To evaluate the effect of BisEDT composition for the prevention of lower extremity amputations; To evaluate the effect of BisEDT composition for the prevention of infection related surgery; To evaluate the effect of BisEDT composition on duration of systemic antibiotic use; To evaluate the effect of BisEDT composition on length of hospital stay; To evaluate the systemic absorption and pharmacokinetics of topically administered BisEDT composition.

Data set [3] in a line: Particle size of microparticulate BisEDT, Nanosizer/Zetasizer Nano-S (Example 1). It is filed as physicochemical. The note with it: resuspended in 2% Pluronic F-68, sonicated. On the procedure:
The dried particulate matter was characterized to assess the particle size properties. Briefly, microparticles were resuspended in 2% Pluronic® F-68 (BASF, Mt. Olive, NJ) and the suspension was sonicated for 10 minutes in a water bath sonicator at standard setting prior to analysis using a Nanosizer/Zetasizer Nano-S particle analyzer (model ZEN1600 (without zeta-potential measuring capacity), Malvern Instruments, Worcestershire, UK) according to the manufacturer's recommendations.

Data set [4] deals with Staphylococcus aureus (S. aureus). The data set is described as follows: Staphylococcus aureus mouse model: efficacy of BisEDT on spleen and wound titer (Example 4). In kind it is in vivo. Here is the method:
Establishment of Mouse Model: A luminescent strain of Staphylococcus aureus (S. aureus) was administered intravenously to adult, female, Swiss Webster mice and 48 hours was allowed for a biofilm to form. Mice were treated daily intravenously with 100 μL of serial dilutions of BisEDT. In this example, BisEDT was used as a suspension (w:v) (e.g. 150, 375, or 750 μg/mL) of drug particles in diluent, which is composed of 3% methylcellulose/0.5% polysorbate 80/10 mM sodium chloride/10 mM sodium phosphate, pH 7.4.
Imaging Studies: Mice were imaged using Silhouette to determine wound size and volume, and In Vivo Imaging Systems (IVIS) Lumina X5 to quantitate bioluminescence.
Terminal colony forming units (CFU) were determined by plating homogenized tissue from the wound bed and in the spleen. Mice were euthanized and wound tissue and spleens were harvested. Tissue samples were weighed and placed into microtubes containing sterile phosphate buffer and homogenized. The homogenate was then serially diluted and plated to determine CFU/g tissue.
An initial study evaluated the effect of BisEDT suspension on CFUs in the spleen and wound bed. The study occurred over 11 days with 9 days of treatment. The BisEDT suspension was administered to 30 (n=5 mice/group) mice at concentrations of 2500, 250, 25, 2.5, 0.25, 0.25, 0.025 μg/mL. A comparator control was vehicle, or diluent, and 50% DMSO in PBS.
A subsequent study evaluated the effect of higher concentrations of BisEDT suspension on CFUs in the spleen and wound bed. The study occurred over 12 days with 10 days of treatment. BisEDT suspension was administered to 20 (n=5 mice/group) at concentrations of 10, 5, 2.5, and 0.75 mg/mL. A negative control was mice that were untreated, and a positive control was mice that were treated with Prontosan. […] Complete inhibition was observed compared to the untreated control (FIG. 3). Further, treatment with 5 mg/mL BisEDT reduced CFUs by 1.5-2 logs, greater than the positive prontosan control.

The test system of data set [5] is subjects with a moderate to severe DFI. The data set is described as follows: Phase 1b/2a DFI study (Example 7): microbiological response, colonization, reinfection, relapse. In kind it is in vivo, human. On the procedure:
Efficacy: The following clinical and microbiological efficacy outcomes were assessed: • Proportion of subjects with a clinical cure of infection 2 weeks following the end of dosing, TOC with BisEDT or placebo. Subjects were classified into one of the following groups: cured (resolution of all clinical signs and symptoms of infection or sufficient improvement such that additional antimicrobial therapy was not required), failure (insufficient resolution of at least one of the initial signs and symptoms of infection, or the need for any additional or alternative antimicrobial therapy, or the need for surgical treatment of the infection), or indeterminate (assessment not possible for any reason). • Proportion of subjects with a clinical cure at EOT with BisEDT or placebo. • Proportion of subjects with a confirmed or presumed microbiological cure 2 weeks following the end of dosing, TOC. Subjects were classified into one of the following groups: confirmed eradication (all of the original pathogens were absent), presumed eradication (there was no available material for culture but the infection clinically responded to treatment), persistence (presence of a pathogen isolated at baseline), or indeterminate (inability to determine microbiological response). • Proportion of subjects with a confirmed or presumed microbiological cure at the EOT and EOS. At the EOS visit, additional classification groups included: colonization (isolation of a new organism that was not present on the initial culture but the wound was not clinically infected); reinfection (isolation of a new organism that was not present on the initial culture and the wound was clinically infected) or relapse (the same organism that was present on the initial culture was again isolated, after an intervening confirmed [sterile culture] or presumed [no material to culture] microbiological response and the wound was clinically infected). • Change from baseline in the Biofilm Score at EOT and TOC. • Proportion of subjects that underwent lower-extremity amputation involving the infected foot. • Proportion of subjects needing any infection-related surgery (ie, lower-extremity amputation, incision and drainage of a new abscess, or soft tissue or bone resection) after treatment had started. • Change from baseline in the 8-item DFI wound score at EOT, TOC, and EOS. • Percent reduction in ulcer size at EOS and each study visit.
Microbiological Response: The distribution of microbiological response outcome categories (confirmed eradication, presumed eradication, persistence, and indeterminate) are descriptively summarized by treatment group using counts and percentages at the TOC, EOT, and EOS visits. The eradication rate (confirmed+presumed vs the rest) was analyzed using the same methodology as clinical response. Analyses are presented for the ME Population.
Colonization, Reinfection, and Relapse: At the EOS visit, the number and percentage of subjects with a colonization, reinfection, or relapse are tabulated by treatment group for the ME Population.
Microbiologic assessment. Cultures were collected at baseline and as needed for the treatment of the subject. Tissue samples were shipped to a central laboratory where the presence of viable microorganisms was determined by standard microbiological culture methods and included speciation. […] The susceptibility of bacterial isolates to BisEDT was also determined, but was not reported to investigators.

Data set [6] has the same test system. Briefly: Phase 1b/2a DFI study (Example 7): biofilm score. In kind it is in vivo, human. The following applies: ME Population, BisEDT dose groups vs placebo. An excerpt:
Biofilm Response: The distribution of absolute scores at the EOT and TOC visits are descriptively summarized using counts and percentages by treatment group. Treatments were compared using the Cochran Mantel Haenszel mean score test statistic, and the p-value is presented. Additionally, shift tables showing individual subject changes from baseline to EOT and TOC visits are presented. Analyses are presented for the ME Population.
Biofilm response: The following categories were used: score 0, no bacteria observed; 1, single individual cells; 2, small micro-colonies (˜10 cells); 3, large micro-colonies (˜100 cells); 4, continuous film; 5, thick continuous film. Subjects with no debridement material as a result of their DFI healing were given a score of 0. The distribution of absolute scores at the EOT and TOC visits are descriptively summarized using counts and percentages by treatment group. Treatments were compared using the Cochran Mantel Haenszel mean score test statistic, and the p-value is presented. Additionally, a shift table showing individual subject changes from baseline to EOT and TOC visits is presented. Analyses are presented for the ME Population.

The nature of data set [7]: Phase 1b/2a DFI study (Example 7): pharmacokinetic evaluation, blood concentration of bismuth. The following applies: topical BisEDT 3, 7.5, 15 μg/cm^2; whole blood concentrations. In kind it is in vivo, human. On the procedure: The primary objective of Part 1 of this study and the planned primary objective of Part 2 of this study was to evaluate the safety and tolerability of topically administered BisEDT composition as adjunct to standard of care (including systemic antibiotic therapy) in subjects with a moderate to severe DFI. […]
The mean bismuth concentration by day for the PK Concentration Population included: 8 subjects on Day 1 predose (only 2 subjects with detectable levels of 0.582 and 0.548 ng/mL, hypothesized to be from undisclosed use of bismuth containing medications or from dressings containing bismuth, such as Xeroform®, as blood was collected before treatment with BisEDT); 8 subjects on Day 3 predose (only 1 subject with a detectable level of 0.525 ng/mL); 8 subjects on Day 5 predose (only 1 subject with a detectable level of 0.701 ng/mL); and 8 subjects on Day 8 predose (only 1 subject with a detectable level of 0.513 ng/mL). […] Bismuth levels were not measured in samples that were erroneously processed to plasma by the 1 site that enrolled the majority of the subjects in the PK study, as bismuth levels are expected to be 15 to 20 times lower in plasma samples compared to whole blood samples and would be well below the lower limit of quantitation for the assay method; no PK parameters were calculated.

The subject of data set [8] is subjects with a moderate to severe DFI. Briefly: Phase 1b/2a DFI study (Example 7): clinical response. In kind it is in vivo, human. The note with it: MITT Population, BisEDT dose groups vs placebo. Here is the method: Methodology: This was a randomized, double-blind, placebo-controlled, multicenter study that was planned to be conducted in 2 parts. In Part 1, subjects were enrolled into escalating dose cohorts (BisEDT at concentrations of 150, 375, and 750 μg/mL resulting in doses of 3, 7.5, and 15 μg/cm^2) (N=16 per cohort) at a ratio of 3:1 (BisEDT to placebo).
In Part 1, subjects received either topical application of BisEDT or topical application of placebo, applied directly to the infected ulcer, 3 times per week, for a minimum of 2 weeks (ie, 6 doses) and up to a maximum of 3 weeks (ie, 9 doses). […] The determination to stop topical BisEDT therapy after a minimum of 2 weeks (ie, 6 doses) was at the discretion of the Principal Investigator and based on the resolution of clinical findings of infection.
Efficacy: The following clinical and microbiological efficacy outcomes were assessed: • Proportion of subjects with a clinical cure of infection 2 weeks following the end of dosing, TOC with BisEDT or placebo. […]
At the TOC, EOT, and EOS visits, the cure rate (cured vs not cured) was analyzed using an Exact Logistic Regression model with covariates for treatment dose group, the 8-item baseline wound score, and the interaction of treatment group and baseline wound score. […]

[9] abbreviates: topical doses of 3, 7.5, and 15 μg/cm^2.
Where [10] appears, read: EOS visit, ME Population, BisEDT dose groups vs placebo.

Entries after “also recorded” stand apart in the source; their conditions may differ.

Experimental findings from patent US12036200B2, “Bismuth-thiol compositions and methods for treating wounds” (Microbion Corporation, priority 2018, dated 2024) are described below.

For `C1C[S][Bi]([S]CC[S][Bi]2[S]CC[S]2)[S]1` [BisEDT, bismuth-1,2-ethanedithiol], the “proportion of subjects with >50% reduction in wound surface area from baseline, compared to placebo” value in data set [1] is recorded as “larger proportion”. Besides, in data set [2] (setting [9]), the “TEAEs and SAEs related to study drug” value was “None of the TEAEs and SAEs occurring in the study were considered related to study drug”. Also, the safety signals result in data set [2] (setting [9]) is listed as “No safety signals were identified”. In addition, in data set [2] (topical doses of 3, 7.5, and 15 μg/cm^2, 3 times per week, 2-3 weeks), the safety and tolerability result was “safe and well tolerated”. Besides, in data set [3], the “peak VMD” value was “about 1.3 microns”. In data set [4] (2.5 mg/mL BisEDT (FIG. 4)), the “mice exhibiting no infection (spleen)” value was “three”. Also, the “reduction of wound titer compared to diluent” value in data set [4] (2500 μg/mL BisEDT suspension, mice, 9 days of treatment (FIG. 1)) is “approximately five”. In addition, in data set [4] (10 mg/mL BisEDT, mice, 10 days of treatment, complete inhibition (FIG. 3)), the “reduction of CFU compared to untreated control” value is recorded as “more than eight”. In data set [5] (setting [10]), the “colonization, reinfection, and relapse, comparison of treatment groups” value is on record as “No difference between treatment groups was observed”. Besides, the “microbiological response, comparison of treatment groups” value is reported as “No difference between treatment groups was observed” in data set [5] (setting [10]); “No difference between treatment groups was observed” in data set [5] (EOT visit, ME Population, BisEDT dose groups vs placebo); “No difference between treatment groups was observed” in data set [5] (TOC visit, ME Population, BisEDT dose groups vs placebo). Further, the “reduction of reinfection or relapse with BisEDT compared to placebo” value in data set [5] (all dose groups combined 12.5% vs placebo 33.3%, EOS visit) was “approximately one-third”. The “biofilm response, comparison of treatment groups” value in data set [6] (EOT visit) was “No difference in biofilm response at the EOT visit between treatment groups was observed”; in data set [6] (TOC visit), “No difference in biofilm response at the TOC visit between treatment groups was observed”. Further, the systemic exposure result in data set [7] is on record as “very little systemic exposure; also recorded: does not appear to exhibit any relevant systemic exposure; also recorded: limited systemic exposure”. For the same compound, the “clinical response, comparison of treatment groups” value in data set [8] (EOT visit) and in data set [8] (TOC visit) was “No difference between treatment groups was observed” each time.
